Experimental findings from ChEMBL document CHEMBL1743341, “Cytochrome p450 enzymes mechanism based inhibitors: common sub-structures and reactivity” (Curr Drug Metab, 2005) are described below.

Data set [1] has as its target T1, CYP1A2 (Homo sapiens, UniProt P05177).
T1 sequence (P05177 whole entry): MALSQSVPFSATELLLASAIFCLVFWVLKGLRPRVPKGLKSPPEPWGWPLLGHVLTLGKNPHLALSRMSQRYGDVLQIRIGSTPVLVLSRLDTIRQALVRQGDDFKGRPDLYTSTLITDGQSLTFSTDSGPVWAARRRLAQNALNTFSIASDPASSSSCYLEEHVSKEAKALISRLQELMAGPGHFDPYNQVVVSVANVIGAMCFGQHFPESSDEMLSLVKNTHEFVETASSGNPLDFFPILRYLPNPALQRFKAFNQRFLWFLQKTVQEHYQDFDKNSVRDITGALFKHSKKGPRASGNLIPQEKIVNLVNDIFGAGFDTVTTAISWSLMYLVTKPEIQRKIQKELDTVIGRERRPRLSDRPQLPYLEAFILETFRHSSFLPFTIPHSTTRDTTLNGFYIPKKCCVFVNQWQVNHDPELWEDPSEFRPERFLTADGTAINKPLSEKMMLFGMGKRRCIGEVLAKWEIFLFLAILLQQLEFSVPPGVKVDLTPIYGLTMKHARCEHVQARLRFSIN
Nature of the data set: Mechanism based inhibition of human cytochrome P450 1A2. It is filed as ADME.

The next data set has as its target Cytochrome P450 3A5 (Homo sapiens, UniProt P20815). As to the kind of experiment: Mechanism based inhibition of human cytochrome P450 3A5 measured by testosterone hydroxylation. It counts as ADME.
For the next data set, the target named is T2, CYP2B1 (Rattus norvegicus, UniProt P00176).
T2 sequence (P00176 whole entry): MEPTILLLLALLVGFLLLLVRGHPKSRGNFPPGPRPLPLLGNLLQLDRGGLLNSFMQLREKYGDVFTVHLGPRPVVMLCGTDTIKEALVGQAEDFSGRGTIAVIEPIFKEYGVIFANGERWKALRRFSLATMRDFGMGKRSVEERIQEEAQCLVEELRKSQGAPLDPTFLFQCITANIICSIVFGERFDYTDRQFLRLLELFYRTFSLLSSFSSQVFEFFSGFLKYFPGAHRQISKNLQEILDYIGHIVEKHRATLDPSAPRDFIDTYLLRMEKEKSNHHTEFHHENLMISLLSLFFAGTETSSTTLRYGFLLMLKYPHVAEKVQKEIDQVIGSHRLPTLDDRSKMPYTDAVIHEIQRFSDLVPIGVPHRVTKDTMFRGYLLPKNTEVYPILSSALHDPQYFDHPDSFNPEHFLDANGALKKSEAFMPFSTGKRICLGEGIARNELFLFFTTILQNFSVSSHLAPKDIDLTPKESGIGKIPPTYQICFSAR
As to the kind of experiment: (§1) Mechanism based inhibition of rat cytochrome P450 CYP2B1 measured by 7-EFC O-deethylation activity. It counts as ADME. As to conditions: rat, probe 7-EFC (O-deethylation).

The target in data set [2] is T3, Cytochrome P450 2B1 (Rattus norvegicus, UniProt P00176).
T3 sequence (P00176 whole entry): T2 sequence (P00176 whole entry)
The description is as §1. It is filed as ADME.

In data set [3] the target is T3, Cytochrome P450 2B1. Nature of the data set: Mechanism based inhibition of rat cytochrome P450 CYP2B1 partition ratio. It is filed as ADME.
In data set [4] the target is T4, CYP2B6 (Homo sapiens, UniProt P20813).
T4 sequence (P20813 whole entry): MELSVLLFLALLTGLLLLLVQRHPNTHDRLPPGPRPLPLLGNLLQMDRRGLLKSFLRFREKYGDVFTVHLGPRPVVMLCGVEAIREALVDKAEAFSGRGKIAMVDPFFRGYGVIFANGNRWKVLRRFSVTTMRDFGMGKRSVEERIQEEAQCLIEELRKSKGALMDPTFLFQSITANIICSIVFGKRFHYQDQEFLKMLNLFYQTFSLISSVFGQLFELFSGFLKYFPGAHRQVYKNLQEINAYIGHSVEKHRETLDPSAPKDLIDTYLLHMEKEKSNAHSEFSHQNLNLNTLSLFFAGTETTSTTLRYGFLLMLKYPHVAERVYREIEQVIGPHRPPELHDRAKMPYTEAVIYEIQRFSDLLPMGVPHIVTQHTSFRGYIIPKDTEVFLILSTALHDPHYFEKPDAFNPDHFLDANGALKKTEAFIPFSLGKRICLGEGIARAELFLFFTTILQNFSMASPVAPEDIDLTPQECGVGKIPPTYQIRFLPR
Nature of the data set: (§2) Mechanism based inhibition of human cytochrome P450 2B6 using human liver microsomes. As to conditions: human, human liver microsomes.

The target in data set [5] is T5, Cytochrome P450 2B6 (Homo sapiens, UniProt P20813).
T5 sequence (P20813 whole entry): T4 sequence (P20813 whole entry)
The data set is described as §2.

Data set [6] deals with T4, CYP2B6. As to the kind of experiment: (§3) Mechanism based inhibition of human cytochrome P450 2B6 using recombinant CYP2B6. As to conditions: human, recombinant CYP2B6.
The target of data set [7] is T5, Cytochrome P450 2B6. The data set is described as §3.
Data set [8] addresses T6, CYP3A4 (Homo sapiens, UniProt P08684). As to the kind of experiment: (§4) Mechanism based inhibition of human cytochrome P450 3A4. It is filed as ADME. As to conditions: human.
The target of data set [9] is T7, Cytochrome P450 3A4 (Homo sapiens, UniProt P08684). The description is as §4. It counts as ADME.
Data set [10] concerns the target T6, CYP3A4. Nature of the data set: (§5) Mechanism based inhibition of human cytochrome P450 3A4 measured by nifedipine oxidation, omeprazole 3-hydroxylation and omeprazole sulfoxydation. It counts as ADME. As to conditions: human.
Data set [11] has as its target T7, Cytochrome P450 3A4. The data set is described as §5. It is filed as ADME.
The target of data set [12] is T7, Cytochrome P450 3A4. Nature of the data set: Mechanism based inhibition of human cytochrome P450 3A4 measured by testosterone 6-beta hydroxylation. It is filed as ADME.
The next data set deals with Cytochrome P450 2E1 (Homo sapiens, UniProt P05181). Nature of the data set: Mechanism based inhibition of human cytochrome P450 2E1. It is filed as ADME.
The target of a further data set is T8, Cytochrome P450 2A6 (Homo sapiens, UniProt P11509).
T8 sequence (P11509 whole entry): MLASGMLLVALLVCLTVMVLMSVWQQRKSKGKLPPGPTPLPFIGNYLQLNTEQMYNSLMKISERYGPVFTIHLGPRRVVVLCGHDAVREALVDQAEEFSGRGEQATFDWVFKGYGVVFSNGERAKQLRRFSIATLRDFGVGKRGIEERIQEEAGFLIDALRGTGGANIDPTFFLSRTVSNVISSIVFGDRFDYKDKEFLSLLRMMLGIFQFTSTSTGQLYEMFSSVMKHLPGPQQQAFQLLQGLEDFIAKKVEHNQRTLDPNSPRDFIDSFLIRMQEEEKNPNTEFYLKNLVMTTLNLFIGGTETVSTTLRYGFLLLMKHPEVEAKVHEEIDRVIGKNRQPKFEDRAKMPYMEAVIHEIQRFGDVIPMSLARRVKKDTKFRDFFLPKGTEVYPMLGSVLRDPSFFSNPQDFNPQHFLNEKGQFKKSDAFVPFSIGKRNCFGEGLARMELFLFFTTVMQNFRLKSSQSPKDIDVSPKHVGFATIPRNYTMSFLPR
As to the kind of experiment: Mechanism based inhibition of human cytochrome P450 2A6. It counts as ADME.

In a further data set the target is Cytochrome P450 2A13 (Homo sapiens, UniProt Q16696). Nature of the data set: Mechanism based inhibition of human cytochrome P450 2A13 measured by coumarin 7-hydroxylation and testosterone 15-hydroxylation. It is filed as ADME.
Data set [13] has as its target T1, CYP1A2. As to the kind of experiment: (§6) Mechanism based inhibition of human cytochrome P450 1A2 measured by 7-ethoxyresorufin O-deethylation (EROD). As to conditions: human, probe 7-ethoxyresorufin (O-deethylation, EROD).
A further data set has as its target T9, Cytochrome P450 1A2 (Homo sapiens, UniProt P05177).
T9 sequence (P05177 whole entry): T1 sequence (P05177 whole entry)
Described as §6.

Data set [14] concerns the target T5, Cytochrome P450 2B6. Nature of the data set: Mechanism based inhibition of human cytochrome P450 2B6 measured by 7-EFC O-deethylation. It is filed as ADME.
In data set [15] the target is T7, Cytochrome P450 3A4. Nature of the data set: Mechanism based inhibition of human cytochrome P450 3A4 measured by midazolam 1'-hydroxylation. It counts as ADME.

T7 sequence (P08684 whole entry): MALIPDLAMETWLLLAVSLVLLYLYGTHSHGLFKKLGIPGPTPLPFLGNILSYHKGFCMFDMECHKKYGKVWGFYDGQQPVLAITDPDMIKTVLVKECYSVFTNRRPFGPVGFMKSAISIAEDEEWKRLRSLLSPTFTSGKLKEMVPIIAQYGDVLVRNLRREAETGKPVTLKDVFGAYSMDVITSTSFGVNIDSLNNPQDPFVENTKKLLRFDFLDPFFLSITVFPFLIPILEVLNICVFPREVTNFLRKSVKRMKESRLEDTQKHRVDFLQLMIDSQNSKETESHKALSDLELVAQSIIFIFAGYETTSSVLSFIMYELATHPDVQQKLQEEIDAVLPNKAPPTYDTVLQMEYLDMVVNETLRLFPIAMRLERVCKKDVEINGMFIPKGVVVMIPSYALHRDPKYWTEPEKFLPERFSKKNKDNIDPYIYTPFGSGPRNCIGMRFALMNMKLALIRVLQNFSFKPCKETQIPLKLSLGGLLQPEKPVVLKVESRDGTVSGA
T6 sequence (P08684 whole entry): as above
Cytochrome P450 3A5, sequence (P20815 whole entry): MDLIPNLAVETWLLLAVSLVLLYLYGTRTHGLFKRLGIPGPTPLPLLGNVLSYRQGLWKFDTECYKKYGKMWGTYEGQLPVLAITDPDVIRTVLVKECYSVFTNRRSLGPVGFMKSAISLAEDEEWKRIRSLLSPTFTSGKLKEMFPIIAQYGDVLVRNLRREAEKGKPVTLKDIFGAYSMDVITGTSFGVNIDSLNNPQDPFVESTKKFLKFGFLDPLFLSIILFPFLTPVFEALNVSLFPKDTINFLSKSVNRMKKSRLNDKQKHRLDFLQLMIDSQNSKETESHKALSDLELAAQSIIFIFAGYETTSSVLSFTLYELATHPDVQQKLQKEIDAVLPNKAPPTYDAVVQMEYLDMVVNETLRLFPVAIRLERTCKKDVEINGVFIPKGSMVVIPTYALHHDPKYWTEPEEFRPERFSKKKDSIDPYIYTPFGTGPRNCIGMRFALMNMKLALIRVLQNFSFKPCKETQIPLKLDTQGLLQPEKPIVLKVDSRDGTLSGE
Cytochrome P450 2A13, sequence (Q16696 whole entry): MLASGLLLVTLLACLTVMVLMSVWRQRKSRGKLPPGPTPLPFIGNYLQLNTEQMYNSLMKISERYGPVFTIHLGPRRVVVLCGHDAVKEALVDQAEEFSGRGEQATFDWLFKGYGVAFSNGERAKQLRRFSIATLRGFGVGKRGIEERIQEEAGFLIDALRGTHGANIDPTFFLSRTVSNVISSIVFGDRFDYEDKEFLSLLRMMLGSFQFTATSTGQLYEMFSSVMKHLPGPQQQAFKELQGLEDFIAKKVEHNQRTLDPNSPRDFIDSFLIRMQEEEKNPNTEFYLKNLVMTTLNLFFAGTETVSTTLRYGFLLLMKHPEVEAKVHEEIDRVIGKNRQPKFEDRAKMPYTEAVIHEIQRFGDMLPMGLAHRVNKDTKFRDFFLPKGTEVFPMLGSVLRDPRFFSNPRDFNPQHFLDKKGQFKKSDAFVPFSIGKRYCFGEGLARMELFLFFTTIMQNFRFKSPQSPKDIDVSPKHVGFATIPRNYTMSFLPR
Cytochrome P450 2E1, sequence (P05181 whole entry): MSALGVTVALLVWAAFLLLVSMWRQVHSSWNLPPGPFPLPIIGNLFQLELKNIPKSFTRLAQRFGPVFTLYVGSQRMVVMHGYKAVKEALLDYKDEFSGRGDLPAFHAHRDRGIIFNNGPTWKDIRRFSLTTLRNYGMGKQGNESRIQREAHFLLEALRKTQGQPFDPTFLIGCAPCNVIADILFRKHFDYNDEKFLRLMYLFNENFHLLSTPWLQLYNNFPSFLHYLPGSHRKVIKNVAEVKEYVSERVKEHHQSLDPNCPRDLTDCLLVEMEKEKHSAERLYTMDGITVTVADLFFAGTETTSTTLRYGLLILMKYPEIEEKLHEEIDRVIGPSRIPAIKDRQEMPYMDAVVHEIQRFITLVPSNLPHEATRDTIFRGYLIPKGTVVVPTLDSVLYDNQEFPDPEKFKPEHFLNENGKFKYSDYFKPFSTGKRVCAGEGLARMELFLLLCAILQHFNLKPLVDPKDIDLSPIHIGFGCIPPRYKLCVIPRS

With `Cc1nc2c([nH]1)c(=O)n(C)c(=O)n2CC1CCCCC1`, the inactivation rate constant (kinact) on CYP1A2 [1] is 0.0148 s⁻¹.

Take `Cc1c(O)cccc1C(=O)N[C@@H](CSc1ccccc1)[C@H](O)CN1C[C@H]2CCCC[C@H]2C[C@H]1C(=O)NC(C)(C)C`: the Ki at Cytochrome P450 3A5 is 0.57 µM.

For the compound `S=C=NCc1ccccc1` [BENZYL ISOTHIOCYANATE], on CYP2B1, the inactivation rate constant (kinact) is 0.011 s⁻¹. This compound registered a Ki on Cytochrome P450 2B1 [2] of 5.8 µM. Moreover, the partition_ratio on Cytochrome P450 2B1 [3] was found to be 9.

As to `COC(=O)[C@H](c1ccccc1Cl)N1CCc2sccc2C1` [CLOPIDOGREL], the inactivation rate constant (kinact) on CYP2B6 [4] is 0.00583 s⁻¹; on CYP2B6 [6], 0.0025 s⁻¹. Also, the Ki at Cytochrome P450 2B6 [5] stood at 0.5 µM; on Cytochrome P450 2B6 [7], 1.1 µM.

As to `C/C(=C\COc1c2ccoc2cc2oc(=O)ccc12)CCC(O)C(C)(C)O` (stereo unspecified) [DIHYDROXYBERGAMOTTIN], the kinact at CYP3A4 [8] is 0.00267 s⁻¹; on CYP3A4 [10] it was 0.001 s⁻¹. Besides, the Ki on Cytochrome P450 3A4 [9] is 59 µM; on Cytochrome P450 3A4 [11] it was 5.56 µM. Also, at Cytochrome P450 3A4 [12], the mechanism based inhibition result is on record as “Cytochrome P450 mechanistic inhibitor: PMID 10859150”.

With `CCN(CC)C(=S)S` [DITIOCARB], the mechanism based inhibition result on Cytochrome P450 2E1 and on Cytochrome P450 2A6 was “Cytochrome P450 mechanistic inhibitor: PMID 9695717” each time.

Consider `COc1c2occc2cc2ccc(=O)oc12` [METHOXSALEN], for which the mechanism based inhibition entry at Cytochrome P450 2A13 is “Cytochrome P450 mechanistic inhibitor: PMID 15579482”.

With `Cc1c(-c2cnccn2)ssc1=S` [OLTIPRAZ], the kinact on CYP1A2 [13] was 0.00317 s⁻¹. Further, the Ki on Cytochrome P450 1A2 worked out at 9 µM.

In turn, `CC/C(=C(\c1ccccc1)c1ccc(OCCN(C)C)cc1)c1ccccc1` [TAMOXIFEN] gave a Ki on Cytochrome P450 2B6 [14] of 0.9 µM. Moreover, at Cytochrome P450 3A4 [15], the mechanism based inhibition result is reported as “Cytochrome P450 mechanistic inhibitor”.
